In PubChem BioAssay (NCI):
Values joined by “and” are separate entries in the source; they are usually repeats but may differ in a detail not shown here. Equal entries are not always repeated.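 Values below derive from 48-hour exposures of cells grown in 96-well plates, with endpoints linearly interpolated between the two concentrations bracketing the appropriate inhibition level. TGI: concentration producing complete growth inhibition.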

Columns and labels:
Assay in all cases: growth of human tumour cells (NCI), 48 h
HL-60(TB) leukemia = test system: HL-60(TB) leukemia
MOLT-4 leukemia = test system: MOLT-4 leukemia
NCI/ADR-RES ovarian = test system: NCI/ADR-RES ovarian
SF-539 CNS = test system: SF-539 CNS
NCI-H460 lung = test system: NCI-H460 lung
SK-OV-3 ovarian = test system: SK-OV-3 ovarian
A549 NSCLC = test system: A549 NSCLC
MCF7 breast = test system: MCF7 breast
EKVX NSCLC = test system: EKVX NSCLC
MDA-N = test system: MDA-N

Compound	TGI (HL-60(TB) leukemia) [µM]	TGI (MOLT-4 leukemia)	TGI (NCI/ADR-RES ovarian) [µM]	TGI (SF-539 CNS) [µM]	TGI (NCI-H460 lung) [µM]	TGI (SK-OV-3 ovarian) [µM]	TGI (A549 NSCLC) [µM]	TGI (MCF7 breast) [µM]	TGI (EKVX NSCLC) [µM]	TGI (MDA-N)
CC(C)(CO)Nc1c(O)c2c(c(O)c1Cl)C(=O)C=CC2=O	0.561	3.3 µM	3.65	2.7	4.28	2.91	3.61	2.65	3.82	2.26 µM
N#Cc1nc(-c2ccccn2)c(-c2ccccn2)nc1C#N	> 29.2	> 30.6 µM	8.5	21.5	> 35.1	7.26	19.8	28	15.7	> 100 µM
c1ccc2c(c1)[C@@H]1O[C@@H]1[C@@]13O[C@@]21[C@H]1O[C@H]1c1ccccc13	41	> 100 µM	39.6	34.9	74.9	52.2	47	> 100	31.9	32.6 µM
CC(=O)OC1COC(n2c(N)c(C#N)c(-c3ccccc3)c(C#N)c2=S)C(OC(C)=O)C1OC(C)=O (stereo not given)	44.8	54.3 µM and 75.4 µM	> 100	> 100	> 100	> 100	> 100	> 100	> 100	88.2 µM and 88.3 µM
O=C1/C(=C/Cc2ccco2)N=C(c2ccccc2)N1c1nc2c(Cl)cc(Cl)cc2s1	49.9	33.3 µM	84.5	61.3	> 100	> 100	80.7	> 100	76.2	47.9 µM
Nc1nc(Cl)cc(NCC2CC(O)(CO)C2)n1 (stereo not given)	> 100	> 100 µM	> 100	> 100	> 100	> 100	> 100	> 100	> 100	> 100 µM
O=C(O)CCC(NC(=O)/C(=C/c1ccccc1)NC(=O)c1ccccc1)C(=O)O (stereo not given)	> 100	> 100 µM	> 100	> 100	> 100	> 100	> 100	> 100	> 100	> 100 µM
CC(C)c1cc(C(C)C)c(B(c2ccccc2)c2ccccc2)c(C(C)C)c1Br	> 100	> 100 µM	> 100	> 100	> 100	> 100	> 100	> 100	> 100	> 100 µM
CCOC(=O)C1=C(C)N(c2ccc(Cl)cc2)C2(O)C=CC(=O)C3C(=O)N(c4ccccc4)C(=O)C132 (stereo not given)	6.21	3.72 µM	6.72	9.4	4.97	8.27	10.5	4.06	4.38	8.92 µM
C[C@@H]1CC(=O)[C@@]2(C)[C@](O)(CCC3O[C@]32C)[C@@]12CC(c1ccoc1)OC2=O (stereo not given in full)	62.8	58.5 µM	> 100	> 100	> 100	> 100	> 100	> 100	> 100	> 100 µM
S=C1NNC(=S)NN1	> 1	0.898 µM	> 1	> 1	> 1	> 1	> 1	> 1	> 1	> 1 µM
O=C(N(C1=CCCC1)N(c1ccccc1)c1ccccc1)C(F)(F)F	46.8	76.2 µM	87.9	45.9	35.7	> 100	98.4	44.6	39.1	65.8 µM
CC(NC1=NCCO1)c1ccco1 (stereo not given)	> 100	> 100 µM	> 100	> 100	> 100	> 100	> 100	> 100	> 100	> 100 µM
NC(=O)c1ccc(S(=O)(=NS(=O)(=O)c2ccccc2)c2ccc(C(N)=O)cc2)cc1	> 100	> 100 µM	> 100	> 100	> 100	> 100	> 100	> 100	> 100	> 100 µM
CSC(=N/N=C(\C)c1ccc(S(=O)(=O)N(C)c2ccccc2)cc1)SC	> 100	> 100 µM	> 100	> 100	> 100	> 100	> 100	> 100	> 100	> 100 µM
CCOC(=O)c1sc2[n+](c1C)C(=O)/C(=C/c1ccccc1Cl)S2	> 62.9	15 µM	16.1	15.2	6.44	> 69.2	> 56.8	15	> 100	0.565 µM
CC(=O)OCC12C(OC(C)=O)C[C@@H](C)C3(CC(c4ccoc4)OC3=O)C1CCC(OC(C)=O)C21CO1 (stereo not given in full)	> 100	> 100 µM	> 100	> 100	> 100	> 100	> 100	> 100	> 100	> 100 µM
